Patent US8569509B2, “Thiazole-4-carboxylic acid esters and thioesters as plant protection agents” (priority 2008, dated 2013)

Test: log P determination (HPLC, calibration with unbranched alkan-2-ones)
Format: physicochemical
Conditions: * LC-MS determination in the acidic range at pH 2.7, 0.1% aqueous formic acid and acetonitrile, linear gradient 10% to 95% acetonitrile
Description: The calibration is carried out using unbranched alkan-2-ones (having 3 to 16 carbon atoms) with known log P values (determination of the log P values by the retention times using linear interpolation between two successive alkanones). The lambda-maX values were determined in the maxima of the chromatographic signals using the UV spectra from 200 nm to 400 nm.

Compound	log p
Cc1cc(C)n(C(C)(C)C(=O)N2CCC(c3nc(C(=O)OC4CCCc5ccccc54)cs3)CC2)n1 (centres unmarked) [compound 368]	4.04*
Cc1cc(C)n(C(C)(C)C(=O)N2CCC(c3nc(C(=O)OC[Si](C)(C)C)cs3)CC2)n1 [compound 369]	3.84*
Cc1cc(C)n(C(C)(C)C(=O)N2CCC(c3nc(C(=O)OC4CCCCC4)cs3)CC2)n1 [compound 370]	3.78*
Cc1cc(C)n(C(C)(C)C(=O)N2CCC(c3nc(C(=O)OCC4CC4)cs3)CC2)n1 [compound 372]	3.86*
Cc1cc(C)n(C(C)(C)C(=O)N2CCC(c3nc(C(=O)OC4CCc5ccccc54)cs3)CC2)n1 (centres unmarked) [compound 376]	3.68*
Cc1cc(C)n(C(C)(C)C(=O)N2CCC(c3nc(C(=O)Oc4cccc5ccccc45)cs3)CC2)n1 [compound 377]	3.82*
Cc1cc(C)n(C(C)(C)C(=O)N2CCC(c3nc(C(=O)Oc4ccc5ccccc5c4)cs3)CC2)n1 [compound 378]	3.73*
Cc1cc(C)n(C(C)(C)C(=O)N2CCC(c3nc(C(=O)OCc4ccccc4)cs3)CC2)n1 [compound 379]	3.19*
Cc1cc(C)n(C(C)(C)C(=O)N2CCC(c3nc(C(=O)OCCc4ccc(F)cc4)cs3)CC2)n1 [compound 405]	3.42*
Cc1cc(C)n(C(C)(C)C(=O)N2CCC(c3nc(C(=O)Oc4ccccc4)cs3)CC2)n1 [compound 412]	3.06*
Cc1cc(C)n(C(C)(C)C(=O)N2CCC(c3nc(C(=O)Oc4ccc(F)cc4)cs3)CC2)n1 [compound 413]	3.21*
Cc1cc(C)n(C(C)(C)C(=O)N2CCC(c3nc(C(=O)OCc4ccncc4)cs3)CC2)n1 [compound 442]	1.33*
Cc1cc(C)n(C(C)(C)C(=O)N2CCC(c3nc(C(=O)OCc4cccs4)cs3)CC2)n1 [compound 443]	3.06*

Same assay, conditions: * LC-MS determination in the acidic range at pH 2.7, 0.1% aqueous formic acid and acetonitrile, linear gradient 10% to 95% acetonitrile, reversed-phase C 18

Compound	log p
O=C(OCCc1ccc(F)cc1)c1csc(C2CCN(C(=O)Cn3ccc(C(F)(F)F)n3)CC2)n1 [compound 126]	3.27*
O=C(Oc1ccccc1)c1csc(C2CCN(C(=O)Cn3ccc(C(F)(F)F)n3)CC2)n1 [compound 127]	2.85*
O=C(Oc1ccc(F)cc1)c1csc(C2CCN(C(=O)Cn3ccc(C(F)(F)F)n3)CC2)n1 [compound 128]	2.89*
O=C(OCc1ccncc1)c1csc(C2CCN(C(=O)Cn3ccc(C(F)(F)F)n3)CC2)n1 [compound 142]	1.32*
O=C(OCc1cccs1)c1csc(C2CCN(C(=O)Cn3ccc(C(F)(F)F)n3)CC2)n1 [compound 143]	2.85*
Cc1c(Cl)c(C(F)(F)F)nn1CC(=O)N1CCC(c2nc(C(=O)OC[Si](C)(C)C)cs2)CC1 [compound 144]	4.28*
Cc1c(Cl)c(C(F)(F)F)nn1CC(=O)N1CCC(c2nc(C(=O)OC3CCCCC3)cs2)CC1 [compound 145]	4.17*
Cc1c(Cl)c(C(F)(F)F)nn1CC(=O)N1CCC(c2nc(C(=O)OC3CCCC3)cs2)CC1 [compound 146]	3.84*
Cc1c(Cl)c(C(F)(F)F)nn1CC(=O)N1CCC(c2nc(C(=O)OC3CCCc4ccccc43)cs2)CC1 (centres unmarked) [compound 149]	4.40*
Cc1c(Cl)c(C(F)(F)F)nn1CC(=O)N1CCC(c2nc(C(=O)OC3CCCC4CCCCC43)cs2)CC1 (centres unmarked) [compound 150]	5.44*
Cc1c(Cl)c(C(F)(F)F)nn1CC(=O)N1CCC(c2nc(C(=O)OC3CCc4ccccc43)cs2)CC1 (centres unmarked) [compound 151]	4.17*
Cc1c(Cl)c(C(F)(F)F)nn1CC(=O)N1CCC(c2nc(C(=O)Oc3cccc4ccccc34)cs2)CC1 [compound 152]	4.17*
Cc1c(Cl)c(C(F)(F)F)nn1CC(=O)N1CCC(c2nc(C(=O)Oc3ccc4ccccc4c3)cs2)CC1 [compound 153]	4.17*
Cc1c(Cl)c(C(F)(F)F)nn1CC(=O)N1CCC(c2nc(C(=O)OCc3ccccc3)cs2)CC1 [compound 154]	3.73*
Cc1c(Cl)c(C(F)(F)F)nn1CC(=O)N1CCC(c2nc(C(=O)OCc3ccc(F)cc3)cs2)CC1 [compound 155]	3.73*
Cc1c(Cl)c(C(F)(F)F)nn1CC(=O)N1CCC(c2nc(C(=O)OC(C)c3ccc(F)cc3)cs2)CC1 (centres unmarked) [compound 184]	3.89*
Cc1c(Cl)c(C(F)(F)F)nn1CC(=O)N1CCC(c2nc(C(=O)OCCc3ccc(F)cc3)cs2)CC1 [compound 186]	3.94*
Cc1c(Cl)c(C(F)(F)F)nn1CC(=O)N1CCC(c2nc(C(=O)Oc3ccccc3)cs2)CC1 [compound 187]	3.58*
Cc1c(Cl)c(C(F)(F)F)nn1CC(=O)N1CCC(c2nc(C(=O)Oc3ccc(F)cc3)cs2)CC1 [compound 188]	3.63*
Cc1c(Cl)c(C(F)(F)F)nn1CC(=O)N1CCC(c2nc(C(=O)OCc3ccncc3)cs2)CC1 [compound 217]	1.82*
Cc1c(Cl)c(C(F)(F)F)nn1CC(=O)N1CCC(c2nc(C(=O)OCc3cccs3)cs2)CC1 [compound 218]	3.58*

Same assay, conditions: * LC-MS determination in the acidic range, pH 2.7, 0.1% aqueous formic acid / acetonitrile gradient

Compound	log p
Cc1cc(C(F)(F)F)nn1CC(=O)N1CCCC(c2nc(C(=O)OCc3ccncc3)cs2)C1 (centres unmarked) [compound 292]	1.51*
Cc1cc(C(F)(F)F)nn1CC(=O)N1CCCC(c2nc(C(=O)OCc3cccs3)cs2)C1 (centres unmarked) [compound 293]	3.23*

Same assay, conditions: * LC-MS determination in the acidic range, pH 2.7, 0.1% aqueous formic acid and acetonitrile, linear gradient 10% to 95% acetonitrile

Compound	log p
Cc1ccccc1COC(=O)c1csc(C2CCN(C(=O)Cn3nc(C(F)(F)F)cc3C)CC2)n1 [compound 31]	3.62*
Cc1cc(C(F)(F)F)nn1CC(=O)N1CCC(c2nc(C(=O)OC(C)c3ccc(F)cc3)cs2)CC1 (centres unmarked) [compound 41]	3.60*
CCC(OC(=O)c1csc(C2CCN(C(=O)Cn3nc(C(F)(F)F)cc3C)CC2)n1)c1ccc(F)cc1 (centres unmarked) [compound 42]	3.89*
Cc1cc(C(F)(F)F)nn1CC(=O)N1CCC(c2nc(C(=O)OCCc3ccc(F)cc3)cs2)CC1 [compound 43]	3.55*
Cc1cc(C(F)(F)F)nn1CC(=O)N1CCC(c2nc(C(=O)Oc3ccccc3)cs2)CC1 [compound 44]	3.20*
Cc1cc(C(F)(F)F)nn1CC(=O)N1CCC(c2nc(C(=O)Oc3ccc(F)cc3)cs2)CC1 [compound 45]	3.26*
Cc1cc(C(F)(F)F)nn1CC(=O)N1CCC(c2nc(C(=O)OCc3ccccn3)cs2)CC1 [compound 80]	2.21*
Cc1cc(C(F)(F)F)nn1CC(=O)N1CCC(c2nc(C(=O)OCc3cccs3)cs2)CC1 [compound 81]	3.22*
C[Si](C)(C)COC(=O)c1csc(C2CCN(C(=O)Cn3ccc(C(F)(F)F)n3)CC2)n1 [compound 84]	3.53*
O=C(OC1CCCCC1)c1csc(C2CCN(C(=O)Cn3ccc(C(F)(F)F)n3)CC2)n1 [compound 85]	3.42*
O=C(OC1CCCc2ccccc21)c1csc(C2CCN(C(=O)Cn3ccc(C(F)(F)F)n3)CC2)n1 (centres unmarked) [compound 89]	3.68*
O=C(OC1CCc2ccccc21)c1csc(C2CCN(C(=O)Cn3ccc(C(F)(F)F)n3)CC2)n1 (centres unmarked) [compound 91]	3.37*
O=C(Oc1cccc2ccccc12)c1csc(C2CCN(C(=O)Cn3ccc(C(F)(F)F)n3)CC2)n1 [compound 92]	3.42*
O=C(OCc1ccccc1)c1csc(C2CCN(C(=O)Cn3ccc(C(F)(F)F)n3)CC2)n1 [compound 94]	2.99*
O=C(OCc1ccc(F)cc1)c1csc(C2CCN(C(=O)Cn3ccc(C(F)(F)F)n3)CC2)n1 [compound 95]	3.04*
CC(OC(=O)c1csc(C2CCN(C(=O)Cn3ccc(C(F)(F)F)n3)CC2)n1)c1ccc(F)cc1 (centres unmarked) [compound 124]	3.18*

Same assay, conditions: pH 2.7; read-out: log P (pH 2.7)

Compound	chromatographic logP
Cc1cc(C(F)(F)F)nn1CC(=O)N1CCC(c2nc(C(=O)SC3CCCCC3)cs2)CC1 [compound 76, S-Cyclohexyl 2-(1-{[5-methyl-3-(trifluoromethyl)-1H-pyrazol-1-yl]acetyl}piperidin-4-yl)-1,3-thiazole-4-carbothioate]	4.51
Cc1cc(C(F)(F)F)nn1CC(=O)N1CCC(c2nc(C(=O)Sc3cccc4ccccc34)cs2)CC1 [compound 77, S-1-Naphthyl 2-(1-{[5-methyl-3-(trifluoromethyl)-1H-pyrazol-1-yl]acetyl}piperidin-4-yl)-1,3-thiazole-4-carbothioate]	4.22
Cc1cc(C(F)(F)F)nn1CC(=O)N1CCC(c2nc(C(=O)OC3CCCCC3)cs2)CC1 [compound 220, Cyclohexyl 2-(1-{[5-methyl-3-(trifluoromethyl)-1H-pyrazol-1-yl]acetyl}piperidin-4-yl)-1,3-thiazole-4-carboxylate]	3.74
Cc1cc(C(F)(F)F)nn1CC(=O)N1CCC(c2nc(C(=O)OC3CCCc4ccccc43)cs2)CC1 (centres unmarked) [compound 224, 1,2,3,4-Tetrahydronaphthalen-1-yl 2-(1-{[5-methyl-3-(trifluoromethyl)-1H-pyrazol-1-yl]acetyl}piperidin-4-yl)-1,3-thiazole-4-carboxylate]	4.01
Cc1cc(C(F)(F)F)nn1CC(=O)N1CCC(c2nc(C(=O)Oc3cccc4ccccc34)cs2)CC1 [compound 227, 1-Naphthyl 2-(1-{[5-methyl-3-(trifluoromethyl)-1H-pyrazol-1-yl]acetyl}piperidin-4-yl)-1,3-thiazole-4-carboxylate]	3.75

Same assay, conditions: reversed-phase (C18) HPLC column; * LC-MS determination in the acidic range, pH 2.7, 0.1% aqueous formic acid / acetonitrile gradient; read-out: log p

Compound	chromatographic logP
Cc1cc(C(F)(F)F)nn1CC(=O)N1CCC(c2nc(C(=O)OC3CCCc4ccccc43)cs2)CC1 (centres unmarked) [compound 224, 1,2,3,4-Tetrahydronaphthalen-1-yl 2-(1-{[5-methyl-3-(trifluoromethyl)-1H-pyrazol-1-yl]acetyl}piperidin-4-yl)-1,3-thiazole-4-carboxylate]	4.01
Cc1cc(C(F)(F)F)nn1CC(=O)N1CCC(c2nc(C(=O)Oc3cccc4ccccc34)cs2)CC1 [compound 227, 1-Naphthyl 2-(1-{[5-methyl-3-(trifluoromethyl)-1H-pyrazol-1-yl]acetyl}piperidin-4-yl)-1,3-thiazole-4-carboxylate]	3.75

Same assay, conditions: reversed-phase (C18) HPLC column; * LC-MS determination in the acidic range, pH 2.7, 0.1% aqueous formic acid and acetonitrile, linear gradient 10% to 95% acetonitrile; read-out: log p

Compound	chromatographic logP
Cc1cc(C(F)(F)F)nn1CC(=O)N1CCC(c2nc(C(=O)SC3CCCCC3)cs2)CC1 [compound 76, S-Cyclohexyl 2-(1-{[5-methyl-3-(trifluoromethyl)-1H-pyrazol-1-yl]acetyl}piperidin-4-yl)-1,3-thiazole-4-carbothioate]	4.51
Cc1cc(C(F)(F)F)nn1CC(=O)N1CCC(c2nc(C(=O)Sc3cccc4ccccc34)cs2)CC1 [compound 77, S-1-Naphthyl 2-(1-{[5-methyl-3-(trifluoromethyl)-1H-pyrazol-1-yl]acetyl}piperidin-4-yl)-1,3-thiazole-4-carbothioate]	4.22

Same assay, conditions: reversed-phase C18 HPLC column; * LC-MS determination in the acidic range at pH 2.7, 0.1% aqueous formic acid and acetonitrile, linear gradient 10% to 95% acetonitrile, reversed-phase C 18; read-out: log p

Compound	chromatographic logP
Cc1cc(C(F)(F)F)nn1CC(=O)N1CCC(c2nc(C(=O)OC3CCCCC3)cs2)CC1 [compound 220, Cyclohexyl 2-(1-{[5-methyl-3-(trifluoromethyl)-1H-pyrazol-1-yl]acetyl}piperidin-4-yl)-1,3-thiazole-4-carboxylate]	3.74
